Laboratory results taken from US8563578B2, “Antitumor properties of NO modified protease inhibitors” (Onconox APS, priority 2008, dated 2013).

Experiments:
[1] = tested on: B16 cells; assay: Cell proliferation by CFSE staining, B16; format: cell-based, mouse; details: 18.8 μM, 48 h, B16 cells which survived the treatment
Method: Rate of cell proliferation was verified by flow cytometric analysis of cells labelled with CFSE (Kang et al. 2005). CFSE dye is stable in cytoplasm more than 15 generations and the intensity of fluorescence decline after each division. Briefly, detached cells were stained with 1.5 μM CFSE for the 15 min at 37° C., washed 2 times, seeded in 6-well plates at 2×10^5 cells/well and then exposed to drugs. After 24 and 48 h of cultivation cells were trypsinized and washed 2 times. Finally, the cells were resuspended in PBS and analyzed by flow cytometry. Green fluorescence emission was measured with a FACSCalibur (BD, Heidelberg, Germany) and analyzed using CellQuest software.
FIG. 4. […] Results are calculated as indicated in materials and methods and presented as mean±SD from representative of three independent experiment (*p <0.05). […] After 24 h of cultivation without or with drugs, cells were stained with AO orange (B) or PI (C) and analyzed by flow cytometry. The data are presented as mean±SD from three independent experiments. *p<0.05, refers to untreated cultures. […] Cells were incubated with 18.8 μM of Sag or Saq-NO2 for 24 h. After that, the drugs were either removed or not from the cells and incubated for additional 24 h. Cell viability was determined by CV test after 24 and 48 h of incubation (right panels). […]

[2] = tested on: B16 cells; assay: Cyclin D3 and p53 expression (cELISA, immunocytochemistry, Western blot), B16; format: cell-based, mouse; details: 18.8 μM, 24 h (Western blot 4 h)
Description: A slightly modified method for cell-based ELISA (cELISA) by Versteeg (Versteed et al., 2000) was used to measure the expression of galactocerebroside, glial fibrilar acidic protein (GFAP), myelin basic protein (MBP), cyclin D3, p53 and p-AKT. Briefly, at the end of cultivation period cells were fixed in 4% paraformaldehyde, endogenous peroxydase was quenched with 1% H2O2 in PBS containing 0.1% Triton X-100 (PBST), and unspecific binding of antibodies blocked with PBST solution containing 10% FCS. […] The absorbance at 450 nm was measured in an automated microplate reader 15 min after incubation with peroxydase substrate TMB and subsequently to addition of 0.1 M HCl. To facilitate comparison between treatments, the obtained absorbances were corrected for the cell number that was determined by crystal violet staining, as described in the original protocol.
The detection of expression of cyclin D3 and p53 expression was performed by the immunocytochemical procedure as previously described (Mijatovic et al, 2005). The cells were cultivated in glass chamber-slides (3×10^4 cells/well) and cyclin D3 and p53 expression were detected with specific antibodies against cyclin D3 (1:1000, Santa Cruz Biotechnology, Santa Cruz, Calif.) and p53 (1:500, Santa Cruz Biotechnology, Santa Cruz, Calif.). […]

CC(C)(C)NC(=O)[C@@H]1C[C@@H]2CCCC[C@@H]2CN1C[C@@H](O[N+](=O)[O-])[C@H](Cc1ccccc1)NC(=O)[C@H](CC(N)=O)NC(=O)c1ccc2ccccc2n1 [Saq-NO2, nitric ester of Saquinavir]
dividing potential [1]: decreased dividing potential
cyclin D3 expression [2]: not considerably changed
p53 expression [2]: much higher extent than Saq
